Measured values taken from the supplement of paper PMC5908809.

Key:
NK-YS (IL-2 2.5 ng/mL) [1] = experiment: drug sensitivity score (DSS) (DSS units); higher = more sensitive; extreme values may be limits of the assay; conditions: 72 h
KAI3 (IL-2 2.5 ng/mL) [2] = experiment: as above; conditions: 72 h
KHYG-1 (IL-2 2.5 ng/mL) [3] = experiment: as above; conditions: 72 h
[4] = system: normal primary NK cells, pool 1 (3 donors) (IL-2 2.5 ng/mL); experiment: as above; conditions: 72 h
[5] = system: normal primary NK cells, pool 1 (3 donors), resting (IL-2 0 ng/mL); experiment: as above; conditions: 72 h
NK-92 (IL-2 2.5 ng/mL) [6] = experiment: as above; conditions: 72 h
DERL-7 (IL-2 2.5 ng/mL) [7] = experiment: as above; conditions: 72 h
SNK-6 (IL-2 2.5 ng/mL) [8] = experiment: as above; conditions: 72 h
NKL (IL-2 2.5 ng/mL) [9] = experiment: as above; conditions: 72 h
YT (IL-2 2.5 ng/mL) [10] = experiment: as above; conditions: 72 h
NK-YS (IL-2 2.5 ng/mL) [11] = experiment: percent inhibition of viability; higher = more inhibition; conditions: 72 h
KAI3 (IL-2 2.5 ng/mL) [12] = experiment: as above; conditions: 72 h
KHYG-1 (IL-2 2.5 ng/mL) [13] = experiment: as above; conditions: 72 h
[14] = system: normal primary NK cells, pool 1 (3 donors) (IL-2 2.5 ng/mL); experiment: as above; conditions: 72 h
[15] = system: normal primary NK cells, pool 1 (3 donors), resting (IL-2 0 ng/mL); experiment: as above; conditions: 72 h
NK-92 (IL-2 2.5 ng/mL) [16] = experiment: as above; conditions: 72 h
DERL-7 (IL-2 2.5 ng/mL) [17] = experiment: as above; conditions: 72 h
SNK-6 (IL-2 2.5 ng/mL) [18] = experiment: as above; conditions: 72 h
NKL (IL-2 2.5 ng/mL) [19] = experiment: as above; conditions: 72 h
YT (IL-2 2.5 ng/mL) [20] = experiment: as above; conditions: 72 h
[21] = system: normal NK cells expanded with K562-aAPC; experiment: drug sensitivity score (DSS) (DSS units); higher = more sensitive; extreme values may be limits of the assay; conditions: 72 h; IL-2 2.5 ng/mL
Description: (§1)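 Drug sensitivity and resistance testing on K562-aAPC-expanded normal NK cells: 5 concentrations (10-fold steps over a 10,000-fold range), 72 h at 37 °C, viability by CellTiter-Glo normalised to DMSO and benzethonium chloride controls; DSS from the fitted curve.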

IMC-1 (IL-2 20 ng/mL) [22] = experiment: as above; conditions: 72 h
[23] = system: normal primary NK cells, pool 3 (3 donors) (IL-2 2.5 ng/mL); experiment: as above; conditions: 72 h
[24] = system: normal primary NK cells, pool 2 (3 donors) (IL-2 2.5 ng/mL); experiment: as above; conditions: 72 h
[25] = system: normal NK cells expanded with K562-aAPC; experiment: percent inhibition of viability; higher = more inhibition; conditions: 72 h, IL-2 2.5 ng/mL
Description: as §1

IMC-1 (IL-2 20 ng/mL) [26] = experiment: as above; conditions: 72 h
[27] = system: normal primary NK cells, pool 3 (3 donors) (IL-2 2.5 ng/mL); experiment: as above; conditions: 72 h
[28] = system: normal primary NK cells, pool 2 (3 donors) (IL-2 2.5 ng/mL); experiment: as above; conditions: 72 h

CC(C)N(C[C@H]1O[C@@H](n2cnc3c(N)ncnc32)[C@H](O)[C@@H]1O)[C@H]1C[C@@H](CCc2nc3cc(C(C)(C)C)ccc3[nH]2)C1 [EPZ-5676] (max concentration tested 1000 nM)
Conditions	drug sensitivity score
DERL-7 (IL-2 2.5 ng/mL) [7]	0
KAI3 (IL-2 2.5 ng/mL) [2]	0.23
KHYG-1 (IL-2 2.5 ng/mL) [3]	1.32
NK-92 (IL-2 2.5 ng/mL) [6]	1.76
NK-YS (IL-2 2.5 ng/mL) [1]	0.65
NKL (IL-2 2.5 ng/mL) [9]	3.3
SNK-6 (IL-2 2.5 ng/mL) [8]	2.24
YT (IL-2 2.5 ng/mL) [10]	0.67
[4]	1.75
[5]	0

percent inhibition of viability [%]
Conditions	DERL-7 (IL-2 2.5 ng/mL) [17]	KAI3 (IL-2 2.5 ng/mL) [12]	KHYG-1 (IL-2 2.5 ng/mL) [13]	NK-92 (IL-2 2.5 ng/mL) [16]	NK-YS (IL-2 2.5 ng/mL) [11]	NKL (IL-2 2.5 ng/mL) [19]	SNK-6 (IL-2 2.5 ng/mL) [18]	YT (IL-2 2.5 ng/mL) [20]	[14]	[15]
0.1 nM	0.43	-1.4	-0.41	-12.3	-3.52	0.4	-2.4	-1.48	2.06	9.51
1 nM	5.23	-5	1.41	-21.5	-3.4	-6	4.63	-5.01	11	20.3
10 nM	1.69	-1.28	-1.91	-14.1	2.56	-2.76	8.19	-2.34	9.38	21
100 nM	4.27	5.24	7.32	5.88	4.51	18.4	3.31	7.03	13.4	20.5
1000 nM	-4.86	11.9	19.1	24.7	16.4	28.7	35.8	14.4	15.7	23.9

CC(C)NC[C@@H](C(=O)N1CCN(c2ncnc3c2[C@H](C)C[C@H]3O)CC1)c1ccc(Cl)cc1 [GDC-0068] (max concentration tested 10000 nM)
Conditions	drug sensitivity score
DERL-7 (IL-2 2.5 ng/mL) [7]	9.75
KAI3 (IL-2 2.5 ng/mL) [2]	0
KHYG-1 (IL-2 2.5 ng/mL) [3]	1.8
NK-92 (IL-2 2.5 ng/mL) [6]	1.5
NK-YS (IL-2 2.5 ng/mL) [1]	1.05
NKL (IL-2 2.5 ng/mL) [9]	0.78
SNK-6 (IL-2 2.5 ng/mL) [8]	0.68
YT (IL-2 2.5 ng/mL) [10]	0
[4]	1.57
[5]	3.04

percent inhibition of viability [%]
Conditions	DERL-7 (IL-2 2.5 ng/mL) [17]	KAI3 (IL-2 2.5 ng/mL) [12]	KHYG-1 (IL-2 2.5 ng/mL) [13]	NK-92 (IL-2 2.5 ng/mL) [16]	NK-YS (IL-2 2.5 ng/mL) [11]	NKL (IL-2 2.5 ng/mL) [19]	SNK-6 (IL-2 2.5 ng/mL) [18]	YT (IL-2 2.5 ng/mL) [20]	[14]	[15]
1 nM	-2.5	12.9	7.35	1.45	7.4	2.85	-1.73	10.5	5.46	10.8
10 nM	3.47	16.7	8.11	-2.57	4.06	7.83	-7.94	10.4	-2.99	1.35
100 nM	-3.9	21.2	10.8	7.49	8.96	4.25	17.9	9.38	2.75	6.46
1000 nM	40.2	10.2	8.62	1.85	7.83	3.13	-5.92	5.43	4.21	4.26
10000 nM	83.9	27.1	22.8	29	20.6	17.5	24.9	17.3	24.8	45.6

COc1cc(Nc2ncc(F)c(Nc3ccc4c(n3)N(COP(=O)(O)O)C(=O)C(C)(C)O4)n2)cc(OC)c1OC [Fostamatinib] (max concentration tested 2500 nM)
Conditions	drug sensitivity score
IMC-1 (IL-2 20 ng/mL) [22]	0.89
[21]	2.26
[23]	0
[24]	0.74

percent inhibition of viability [%]
Conditions	0.25 nM	2.5 nM	25 nM	250 nM	2500 nM
IMC-1 (IL-2 20 ng/mL) [26]	-2.94	-0.51	-4.59	-3.53	-9.62
[25]	-1.89	-6.48	-4.68	-0.77	45.3
[27]	-14	-12.5	-10.8	-5.58	4.31
[28]	-8.88	-12.4	-4.65	-3.71	24.9

CC(C)N(C[C@H]1O[C@@H](n2cnc3c(N)ncnc32)[C@H](O)[C@@H]1O)[C@H]1C[C@@H](CCc2nc3cc(C(C)(C)C)ccc3[nH]2)C1 [Pinometostat] (max concentration tested 1000 nM)
Conditions	drug sensitivity score
IMC-1 (IL-2 20 ng/mL) [22]	0
[21]	0.26
[23]	0
[24]	0

percent inhibition of viability [%]
Conditions	0.1 nM	1 nM	10 nM	100 nM	1000 nM
IMC-1 (IL-2 20 ng/mL) [26]	-9.34	-4.07	-2.87	-4.72	3.86
[25]	-0.7	-1.47	-2.36	3.36	12.5
[27]	-1.26	13	2.22	1.46	-1.92
[28]	-6.45	6.92	6.49	-0.47	0.82
